The target in test [1] is Proto-oncogene tyrosine-protein kinase ROS (Homo sapiens) (UniProt P08922). Conditions: at 10 µM.
Test [2] addresses Ribosomal protein S6 kinase alpha-3 (Homo sapiens, UniProt P51812). Conditions: at 10 µM.
The target in test [3] is T1, Serine/threonine-protein kinase ICK (Homo sapiens) (UniProt Q9UPZ9).
T1 sequence (whole entry): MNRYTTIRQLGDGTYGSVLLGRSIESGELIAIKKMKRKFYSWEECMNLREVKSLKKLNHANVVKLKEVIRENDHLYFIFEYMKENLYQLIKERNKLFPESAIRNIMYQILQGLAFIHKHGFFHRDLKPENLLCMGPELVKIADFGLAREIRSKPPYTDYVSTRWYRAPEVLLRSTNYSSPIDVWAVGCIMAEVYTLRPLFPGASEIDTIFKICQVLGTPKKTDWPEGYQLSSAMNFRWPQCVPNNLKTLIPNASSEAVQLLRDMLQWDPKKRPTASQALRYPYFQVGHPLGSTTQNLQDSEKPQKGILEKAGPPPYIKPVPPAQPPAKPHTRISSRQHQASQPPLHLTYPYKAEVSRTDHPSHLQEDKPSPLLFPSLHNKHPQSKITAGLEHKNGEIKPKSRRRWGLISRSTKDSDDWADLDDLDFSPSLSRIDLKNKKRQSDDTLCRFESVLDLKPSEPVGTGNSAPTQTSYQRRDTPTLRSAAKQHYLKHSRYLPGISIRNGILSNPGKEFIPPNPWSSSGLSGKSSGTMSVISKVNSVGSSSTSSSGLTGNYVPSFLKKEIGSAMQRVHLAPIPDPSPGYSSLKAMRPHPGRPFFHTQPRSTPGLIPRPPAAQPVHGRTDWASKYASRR
Put plainly: Selectivity interaction (KinomeScan (DiscoverX)) EUB0000666a ICK. The note with it: at 10 µM.

Test [4] concerns the target Mitogen-activated protein kinase kinase kinase 20 (Homo sapiens) (UniProt Q9NYL2). Kind of test: Selectivity interaction (KinomeScan (DiscoverX)) EUB0000666a MAP3K20. Conditions: at 10 µM.
The target of test [5] is Mitogen-activated protein kinase kinase kinase kinase 5 (Homo sapiens) (UniProt Q9Y4K4). Put plainly: Selectivity interaction (KinomeScan (DiscoverX)) EUB0000607a MAP4K5. The note with it: at 10 µM.
The target in test [6] is Epidermal growth factor receptor (Homo sapiens, UniProt P00533). Put plainly: Selectivity interaction (Enyzmatic assay) EUB0000601a EGFR.
Test [7] concerns the target T2, Dual specificity mitogen-activated protein kinase kinase 4 (Homo sapiens) (UniProt P45985).
T2 sequence (whole entry): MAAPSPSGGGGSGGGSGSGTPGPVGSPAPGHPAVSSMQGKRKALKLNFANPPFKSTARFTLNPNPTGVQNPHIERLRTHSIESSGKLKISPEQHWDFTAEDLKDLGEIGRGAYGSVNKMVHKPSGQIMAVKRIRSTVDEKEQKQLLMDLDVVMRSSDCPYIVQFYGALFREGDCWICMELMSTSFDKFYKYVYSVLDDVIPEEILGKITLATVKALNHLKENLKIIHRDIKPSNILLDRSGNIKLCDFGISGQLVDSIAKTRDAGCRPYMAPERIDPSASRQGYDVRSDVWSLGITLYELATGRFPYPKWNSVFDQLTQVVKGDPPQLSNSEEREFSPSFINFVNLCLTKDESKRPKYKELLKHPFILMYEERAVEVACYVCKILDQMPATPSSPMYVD
Kind of test: Selectivity interaction (ActivX KiNativ screen (kinase selectivity in THP-1 cell lysates)) EUB0000639a MAP2K4. The note with it: lysate, at 0.04 µM. The format is subcellular.

The target of test [8] is Ribosomal protein S6 kinase alpha-1 (Homo sapiens, UniProt Q15418). Kind of test: Selectivity interaction (Kinase panel (literature)) EUB0001199aCl RPS6KA1. Conditions: at 1 µM.
For test [9], the target named is Calcium/calmodulin-dependent protein kinase type II subunit alpha (Homo sapiens, UniProt Q9UQM7). Kind of test: Selectivity interaction (ProQinase) EUB0000171b CAMK2A.
The target of test [10] is Serine/threonine-protein kinase Nek6 (Homo sapiens) (UniProt Q9HC98). Put plainly: Selectivity interaction (Ambit KINOMEscan and KiNATiv profiling in Jurkat cells) EUB0000090b NEK6. The format is cell-based. Conditions: at 1 µM.
Test [11] addresses Insulin-like growth factor 1 receptor (Homo sapiens, UniProt P08069). Put plainly: Selectivity interaction (Upstate Kinase Profiler service (Millipore)) EUB0000056c IGF1R. Conditions: at 1 µM.
The target in test [12] is Calcium/calmodulin-dependent protein kinase kinase 1 (Homo sapiens) (UniProt Q8N5S9). Kind of test: Selectivity interaction (KinomeScan (DiscoverX)) EUB0000655a CAMKK1. Conditions: at 10 µM.
For test [13], the target named is Cyclin-dependent kinase 11B (Homo sapiens) (UniProt P21127). Kind of test: Selectivity interaction (KinomeScan (DiscoverX)) EUB0000655a CDK11B. The note with it: at 10 µM.
For test [14], the target named is Serine/threonine-protein kinase Nek6 (Homo sapiens) (UniProt Q9HC98). Kind of test: Selectivity interaction (KinomeScan (DiscoverX)) EUB0000618a NEK6. Conditions: at 10 µM.
Test [15] has as its target Cyclin-dependent kinase 9 (Homo sapiens, UniProt P50750). Put plainly: Selectivity interaction (KinomeScan (DiscoverX)) EUB0000229b CDK9. Conditions: at 10 µM.

The IC50 is the point on the concentration scale where inhibition reaches its midpoint. Read a high IC50 as a need for much substance.

Sequence of Serine/threonine-protein kinase Nek6 (Homo sapiens) (Q9HC98 whole entry): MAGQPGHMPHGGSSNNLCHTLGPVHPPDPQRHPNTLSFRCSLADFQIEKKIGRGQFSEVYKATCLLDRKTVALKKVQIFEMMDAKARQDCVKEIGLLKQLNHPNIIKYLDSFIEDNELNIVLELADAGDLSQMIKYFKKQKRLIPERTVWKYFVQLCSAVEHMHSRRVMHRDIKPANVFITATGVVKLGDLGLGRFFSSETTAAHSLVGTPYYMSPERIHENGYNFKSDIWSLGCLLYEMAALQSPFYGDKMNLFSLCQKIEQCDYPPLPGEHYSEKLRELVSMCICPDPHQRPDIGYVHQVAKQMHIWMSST
Sequence of Calcium/calmodulin-dependent protein kinase type II subunit alpha (Q9UQM7 whole entry): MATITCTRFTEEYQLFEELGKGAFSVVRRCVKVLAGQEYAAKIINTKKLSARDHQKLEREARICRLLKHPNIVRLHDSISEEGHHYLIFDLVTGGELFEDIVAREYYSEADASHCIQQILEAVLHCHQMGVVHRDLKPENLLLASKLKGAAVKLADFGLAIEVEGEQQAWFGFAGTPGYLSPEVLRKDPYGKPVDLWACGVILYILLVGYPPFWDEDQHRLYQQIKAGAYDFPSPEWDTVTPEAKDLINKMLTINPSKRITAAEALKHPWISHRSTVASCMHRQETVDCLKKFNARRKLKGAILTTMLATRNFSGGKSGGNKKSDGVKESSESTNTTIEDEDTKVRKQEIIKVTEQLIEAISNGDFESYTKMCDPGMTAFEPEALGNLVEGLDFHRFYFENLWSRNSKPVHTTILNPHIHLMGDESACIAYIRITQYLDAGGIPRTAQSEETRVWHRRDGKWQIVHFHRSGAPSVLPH
Sequence of Calcium/calmodulin-dependent protein kinase kinase 1 (Homo sapiens) (Q8N5S9 whole entry, looked up): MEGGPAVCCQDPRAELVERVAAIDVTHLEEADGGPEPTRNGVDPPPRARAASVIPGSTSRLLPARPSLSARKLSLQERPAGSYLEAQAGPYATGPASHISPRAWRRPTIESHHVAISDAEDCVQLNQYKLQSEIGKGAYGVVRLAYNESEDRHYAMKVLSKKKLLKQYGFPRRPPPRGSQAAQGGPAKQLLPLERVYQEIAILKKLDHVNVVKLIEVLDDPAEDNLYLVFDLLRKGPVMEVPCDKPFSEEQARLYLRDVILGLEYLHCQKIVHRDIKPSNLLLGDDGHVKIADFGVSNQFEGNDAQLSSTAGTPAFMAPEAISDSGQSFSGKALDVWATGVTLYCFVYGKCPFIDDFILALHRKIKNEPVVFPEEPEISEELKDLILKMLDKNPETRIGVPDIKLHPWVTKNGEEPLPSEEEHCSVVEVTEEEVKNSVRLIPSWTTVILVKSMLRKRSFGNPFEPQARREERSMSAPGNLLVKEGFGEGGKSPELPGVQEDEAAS
Sequence of Ribosomal protein S6 kinase alpha-3 (P51812 whole entry): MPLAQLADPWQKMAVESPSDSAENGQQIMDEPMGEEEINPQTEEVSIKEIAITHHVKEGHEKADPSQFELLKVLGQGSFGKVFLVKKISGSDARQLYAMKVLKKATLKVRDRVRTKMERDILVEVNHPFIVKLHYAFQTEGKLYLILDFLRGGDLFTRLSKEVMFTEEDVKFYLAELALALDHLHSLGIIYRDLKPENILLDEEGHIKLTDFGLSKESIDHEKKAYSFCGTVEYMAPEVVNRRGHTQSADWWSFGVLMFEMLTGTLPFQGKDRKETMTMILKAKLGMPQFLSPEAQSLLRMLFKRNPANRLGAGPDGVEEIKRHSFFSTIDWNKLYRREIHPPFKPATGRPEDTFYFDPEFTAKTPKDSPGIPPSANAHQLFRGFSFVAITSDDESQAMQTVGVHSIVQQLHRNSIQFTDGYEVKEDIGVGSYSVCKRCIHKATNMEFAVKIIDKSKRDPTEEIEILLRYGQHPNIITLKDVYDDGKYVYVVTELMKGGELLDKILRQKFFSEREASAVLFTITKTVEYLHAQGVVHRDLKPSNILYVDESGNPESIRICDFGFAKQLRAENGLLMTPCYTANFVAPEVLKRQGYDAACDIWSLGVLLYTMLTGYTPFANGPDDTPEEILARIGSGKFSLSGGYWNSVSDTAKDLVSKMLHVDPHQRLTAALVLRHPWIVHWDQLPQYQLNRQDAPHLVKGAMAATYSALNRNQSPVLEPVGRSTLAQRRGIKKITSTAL
Sequence of Cyclin-dependent kinase 9 (P50750 whole entry): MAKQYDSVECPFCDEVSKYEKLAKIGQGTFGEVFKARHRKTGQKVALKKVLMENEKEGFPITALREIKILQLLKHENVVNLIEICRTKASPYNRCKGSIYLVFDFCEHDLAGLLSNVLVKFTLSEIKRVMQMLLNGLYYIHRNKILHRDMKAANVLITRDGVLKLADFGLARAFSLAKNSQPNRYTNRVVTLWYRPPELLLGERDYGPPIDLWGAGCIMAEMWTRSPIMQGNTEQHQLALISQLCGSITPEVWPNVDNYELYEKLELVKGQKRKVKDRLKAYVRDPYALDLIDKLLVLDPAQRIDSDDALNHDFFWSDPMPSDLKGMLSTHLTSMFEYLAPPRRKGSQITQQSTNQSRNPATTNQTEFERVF
Sequence of Ribosomal protein S6 kinase alpha-1 (Q15418 whole entry): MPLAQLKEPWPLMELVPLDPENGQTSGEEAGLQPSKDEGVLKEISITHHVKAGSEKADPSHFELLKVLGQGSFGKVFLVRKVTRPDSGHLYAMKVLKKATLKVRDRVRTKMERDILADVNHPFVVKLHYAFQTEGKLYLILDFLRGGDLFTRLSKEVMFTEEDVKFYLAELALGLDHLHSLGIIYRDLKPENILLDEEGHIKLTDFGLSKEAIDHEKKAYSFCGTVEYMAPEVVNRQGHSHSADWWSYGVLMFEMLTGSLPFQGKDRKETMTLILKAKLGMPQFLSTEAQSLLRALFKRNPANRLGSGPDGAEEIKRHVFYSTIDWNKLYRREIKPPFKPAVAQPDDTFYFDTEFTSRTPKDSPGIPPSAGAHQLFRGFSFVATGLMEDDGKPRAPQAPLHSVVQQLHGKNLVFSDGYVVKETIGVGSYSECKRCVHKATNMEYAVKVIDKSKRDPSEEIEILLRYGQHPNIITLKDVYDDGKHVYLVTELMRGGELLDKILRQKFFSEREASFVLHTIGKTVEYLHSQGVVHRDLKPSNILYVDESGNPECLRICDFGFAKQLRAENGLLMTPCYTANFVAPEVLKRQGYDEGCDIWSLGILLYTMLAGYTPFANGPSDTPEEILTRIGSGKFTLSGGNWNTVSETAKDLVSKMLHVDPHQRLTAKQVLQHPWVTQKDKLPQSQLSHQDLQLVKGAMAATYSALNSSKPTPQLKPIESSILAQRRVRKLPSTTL
Sequence of Insulin-like growth factor 1 receptor (P08069 31-736 limits assumed): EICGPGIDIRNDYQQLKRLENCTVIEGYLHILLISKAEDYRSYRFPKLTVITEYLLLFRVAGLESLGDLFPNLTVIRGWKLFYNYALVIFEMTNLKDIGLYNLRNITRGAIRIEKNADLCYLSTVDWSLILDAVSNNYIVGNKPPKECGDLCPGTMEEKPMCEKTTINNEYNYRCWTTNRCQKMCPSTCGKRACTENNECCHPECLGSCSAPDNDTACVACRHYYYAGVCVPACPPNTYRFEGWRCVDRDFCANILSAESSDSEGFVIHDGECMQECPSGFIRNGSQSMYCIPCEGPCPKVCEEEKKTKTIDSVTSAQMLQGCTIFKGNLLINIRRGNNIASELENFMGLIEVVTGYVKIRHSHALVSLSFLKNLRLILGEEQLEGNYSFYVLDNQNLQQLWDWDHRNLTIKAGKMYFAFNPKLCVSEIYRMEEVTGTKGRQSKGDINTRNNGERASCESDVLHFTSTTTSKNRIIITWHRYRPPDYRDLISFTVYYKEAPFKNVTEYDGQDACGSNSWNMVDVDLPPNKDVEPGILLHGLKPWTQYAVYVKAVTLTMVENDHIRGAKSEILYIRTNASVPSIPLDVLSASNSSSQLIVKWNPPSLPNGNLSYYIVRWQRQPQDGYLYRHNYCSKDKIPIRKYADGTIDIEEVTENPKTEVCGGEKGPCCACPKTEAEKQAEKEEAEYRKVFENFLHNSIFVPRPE
Sequence of Insulin-like growth factor 1 receptor (P08069 741-1367 limits assumed): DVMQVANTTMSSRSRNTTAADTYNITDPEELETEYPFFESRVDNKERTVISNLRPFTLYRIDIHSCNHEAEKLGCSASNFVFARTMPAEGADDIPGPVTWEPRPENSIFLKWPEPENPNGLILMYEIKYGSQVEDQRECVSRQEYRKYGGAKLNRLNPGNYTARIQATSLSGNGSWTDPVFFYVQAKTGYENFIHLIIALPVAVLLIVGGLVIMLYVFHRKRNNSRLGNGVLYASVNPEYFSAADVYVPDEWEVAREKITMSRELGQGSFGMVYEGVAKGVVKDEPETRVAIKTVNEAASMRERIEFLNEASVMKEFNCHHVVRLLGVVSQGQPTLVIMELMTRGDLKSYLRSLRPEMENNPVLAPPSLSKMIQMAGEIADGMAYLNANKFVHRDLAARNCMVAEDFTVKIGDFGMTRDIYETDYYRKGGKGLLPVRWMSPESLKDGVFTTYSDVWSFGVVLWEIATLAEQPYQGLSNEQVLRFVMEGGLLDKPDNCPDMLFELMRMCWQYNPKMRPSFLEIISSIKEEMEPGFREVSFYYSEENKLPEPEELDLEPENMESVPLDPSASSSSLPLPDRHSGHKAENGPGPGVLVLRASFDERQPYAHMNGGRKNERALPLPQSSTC

With `CCN(CC)CCCCNc1ncc2cc(-c3cc(OC)cc(OC)c3)c(NC(=O)NC(C)(C)C)nc2n1`, the % of control in test [1] and in test [2] was 100% in each case.
As for `O=C(NOC[C@H](O)CO)c1ccc(F)c(F)c1Nc1ccc(I)cc1F`, the % of control in [3] worked out at 84%; in test [4], 88%.
In [5], `CNC(=O)Nc1ccc(-c2nc(N3CC4CCC(C3)O4)c3cnn(C4CCC5(CC4)OCCO5)c3n2)cc1` displayed a % of control of 83%.
Consider `CCc1cc(Nc2nccc(-c3c(-c4ccc(OC)c(C(=O)Nc5c(F)cccc5F)c4)nc4ccccn34)n2)c(OC)cc1N1CCC(N2CCN(S(C)(=O)=O)CC2)CC1`, for which the half-maximal inhibitory concentration (IC50) in test [6] is over 10 µM.
Regarding `CC[C@@H]1[C@H](F)C(=O)N[C@@H]1COc1nccc2cc(C(N)=O)c(OC)cc12` [ZIMLOVISERTIB], in test [7], the % of inhibition turned out to be 8%.
Compound `CN1Cc2nccc(-c3cn(C)nc3-c3ccc(F)cc3)c2C1=O` showed a % of inhibition in [8] of 18%.
For `C=CC(=O)Nc1cccc(C(=O)Nc2ccc(Nc3cc(-c4[nH]c(SC)nc4C)ccn3)cc2)c1`, the % of control in test [9] (at 1 µM) and in test [9] (at 5 µM) was 90% in each case.
`CN(C)C/C=C/C(=O)Nc1ccc(C(=O)N2CCCC(Nc3ncc(Cl)c(-c4c[nH]c5ccccc45)n3)C2)cc1` (stereo unspecified) showed a % of control in test [10] of 95%.
The compound `Cc1ccc(-c2ccc3c(ccc4sc5c(c43)NC[C@@H](C)NC5=O)n2)cn1` displayed a % of inhibition in test [11] of 0%.
Take `CN(C)CCOc1ccc(-c2nc(-c3ccncc3)c(-c3ccc4c(c3)CC/C4=N\O)[nH]2)cc1`: the % of control in test [12] is 99%; in test [13] it was 100%.
In the case of `O[C@H]1CC[C@H](Nc2ncc3nc(Nc4c(F)cc(F)cc4F)n([C@H]4CCOC4)c3n2)CC1`, the % of control in test [14] worked out at 100%.
`COc1cc(N(C)c2ccnc3ccc(C(F)(F)F)cc23)cc(OC)c1OC`: the % binding in [15] was 81%.

These data come from ChEMBL document CHEMBL5465560, “Selectivity Literature for EUbOPEN Chemogenomic Library” (2024).
